# Test results from US20080312271A1, “AZABENZIMIDAZOLYL COMPOUNDS” (Pfizer Inc., priority 2006, published 2008).
# Biological target: T1, mGluR2 receptor (metabotropic glutamate receptor 2) (Homo sapiens, UniProt Q14416)
# T1 construct: expressed in transfected cells
# Test: mGluR2 Potentiator Screen, FLIPR, EC10-EC20 glutamate challenge
# Assay type: cell-based
# Conditions: not given
# In short: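 Potentiator assay in HEK cells stably expressing mGluR2 with Gα15, glutamine-depleted overnight, loaded with Fluo-4 plus probenecid and GPT/pyruvate to remove glutamate. Peak fluorescence ratio curve-fitted, with maximum set by on-plate standards.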
# T1 sequence (Q14416 19-872, species assumed): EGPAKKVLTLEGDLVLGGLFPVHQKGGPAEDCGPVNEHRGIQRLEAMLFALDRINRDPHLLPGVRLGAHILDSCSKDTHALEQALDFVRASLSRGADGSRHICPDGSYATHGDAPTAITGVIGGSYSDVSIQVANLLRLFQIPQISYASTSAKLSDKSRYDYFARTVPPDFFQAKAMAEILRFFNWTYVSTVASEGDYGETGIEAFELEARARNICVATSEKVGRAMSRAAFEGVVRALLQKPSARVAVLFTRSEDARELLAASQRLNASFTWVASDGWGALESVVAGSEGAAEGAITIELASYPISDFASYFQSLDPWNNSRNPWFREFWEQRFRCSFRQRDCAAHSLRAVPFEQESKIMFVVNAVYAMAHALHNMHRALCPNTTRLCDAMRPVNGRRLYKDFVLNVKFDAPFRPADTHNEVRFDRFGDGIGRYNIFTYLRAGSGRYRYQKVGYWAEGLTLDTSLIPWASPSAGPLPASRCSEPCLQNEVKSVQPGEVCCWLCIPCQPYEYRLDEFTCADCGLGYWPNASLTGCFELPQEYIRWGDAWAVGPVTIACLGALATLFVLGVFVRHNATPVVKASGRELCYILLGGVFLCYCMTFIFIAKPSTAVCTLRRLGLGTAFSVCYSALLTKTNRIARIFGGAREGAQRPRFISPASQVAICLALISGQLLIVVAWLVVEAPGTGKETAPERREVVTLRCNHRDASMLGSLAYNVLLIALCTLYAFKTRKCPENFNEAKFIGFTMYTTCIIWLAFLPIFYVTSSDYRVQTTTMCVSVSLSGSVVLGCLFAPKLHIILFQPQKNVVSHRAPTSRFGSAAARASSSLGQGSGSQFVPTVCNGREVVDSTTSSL
row,EC50,Compound
1,77.8 nM,"CC(C)Oc1ccc([C@H]2CCN(Cc3nc4ncccc4n3C)C[C@H]2C)c(Cl)c1 (single isomer, unassigned) [compound 221]"
2,108 nM,C[C@@H]1CN(Cc2nc3ncccc3n2C)CC[C@@H]1c1ccc(Cl)cc1C(F)(F)F (relative stereo) [compound 207]
3,1170 nM,CC(C)Oc1cc(F)ccc1[C@H]1CCN(Cc2nc3cnccc3n2C)C[C@H]1C (relative stereo) [compound 192]
4,> 2710 nM,"C[C@@H]1CN(Cc2nc3cnccc3n2C)CC[C@@H]1c1ccc(C(F)(F)F)c(F)c1 (single isomer, unassigned) [compound 184]"
5,128 nM,C[C@@H]1CN(Cc2nc3ncccc3n2C)CC[C@@H]1c1ccc(F)c(C(F)(F)F)c1 (relative stereo) [compound 197]
6,610 nM,CC(C)Oc1cc(F)ccc1[C@H]1CCN(Cc2nc3ncccc3n2C)C[C@H]1C (relative stereo) [compound 191]
7,124 nM,COc1cc(OC(F)(F)F)ccc1[C@H]1CCN(Cc2nc3cnccc3n2C)C[C@H]1C (relative stereo) [compound 214]
8,1090 nM,CC(C)Oc1ccc([C@H]2CCN(Cc3nc4cnccc4n3C)C[C@H]2C)cc1F (relative stereo) [compound 181]
9,122 nM,C[C@@H]1CN(Cc2nc3cnccc3n2C)CC[C@@H]1c1ccc(OC(F)F)cc1F (relative stereo) [compound 199]
10,43.6 nM,C[C@@H]1CN(Cc2nc3ncccc3n2C)CC[C@@H]1c1ccc(OC(F)F)cc1Cl (relative stereo) [compound 203]

# More lines, now with the values behind:
row,Compound,EC50
1,"C[C@@H]1CN(Cc2nc3cnccc3n2C)CC[C@@H]1c1ccc(OC(F)(F)F)cc1F (single isomer, unassigned) [compound 159]",< 31.3 nM
2,"COc1cc(C(F)(F)F)ccc1[C@H]1CCN(Cc2nc3ncccc3n2C)C[C@H]1C (single isomer, unassigned) [compound 131]",21.9 nM
3,Cn1c(CN2CCC(c3ccccc3C(F)(F)F)CC2)nc2cccnc21 [compound 50],406 nM
4,C[C@@H]1CN(Cc2nc3cnccc3n2C)CC[C@@H]1c1ccc(C(F)(F)F)cc1 (relative stereo) [compound 71],75 nM
5,COc1ccc(Cl)cc1C1CCN(Cc2nc3cccnc3n2C)CC1 [compound 44],> 808 nM
6,COc1ccc([C@H]2CCN(Cc3nc4ncccc4n3C)C[C@H]2C)c(C(F)(F)F)c1 (relative stereo) [compound 173],214 nM
7,Cc1cc(F)ccc1C1CCN(Cc2nc3ncccc3n2C)CC1 [compound 69],353 nM
8,"C[C@@H]1CN(Cc2nc3cnccc3n2C)CC[C@@H]1c1ccc(C(F)(F)F)cc1F (single isomer, unassigned) [compound 144]",23 nM
9,Cn1c(CN2CCC(c3ccccc3C(F)(F)F)CC2)nc2cnccc21 [compound 48],481 nM
10,"C[C@@H]1CN(Cc2nc3ncccc3n2C)CC[C@@H]1c1ccc(C(F)(F)F)cc1Cl (single isomer, unassigned) [compound 163]",396 nM
11,Cn1c(CN2CCC(c3cc(C(F)(F)F)cc(C(F)(F)F)c3)CC2)nc2ncccc21 [compound 65],144 nM
12,C[C@@H]1CN(Cc2nc3ncccc3n2C)CC[C@@H]1c1ccc(F)cc1F (relative stereo) [compound 124],118 nM
13,Cn1c(CN2CCC(c3ccc(C(F)(F)F)cc3)CC2)nc2ccncc21 [compound 93],196 nM
14,COc1ccc(C(F)(F)F)cc1C1CCN(Cc2nc3ncccc3n2C)CC1 [compound 55],211 nM
15,Cn1c(CN2CCC(c3cc(C(F)(F)F)ccc3F)CC2)nc2ncccc21 [compound 58],5950 nM
16,COc1cc(F)ccc1[C@H]1CCN(Cc2nc3cnccc3n2C)C[C@H]1C (relative stereo) [compound 133],53.7 nM
17,C#CCOc1ccc(Cl)cc1C1CCN(Cc2nc3ncccc3n2C)CC1 [compound 45],72.6 nM

row,Compound,EC50
1,Cc1ccc(C2CCN(Cc3nc4ncccc4n3C)CC2)cc1 [compound 104],710 nM
2,Cn1c(CN2CCC(c3ccc(F)c(Cl)c3)CC2)nc2cnccc21 [compound 102],482 nM
3,Cn1c(CN2CCC(c3cc(F)ccc3F)CC2)nc2ncccc21 [compound 74],782 nM
4,Cn1c(CN2CCC(c3ccccc3F)CC2)nc2ncccc21 [compound 54],1590 nM
5,Cn1c(CN2CCC(c3ccc(C(F)(F)F)cc3)C(F)C2)nc2ncccc21 (stereo not drawn) [compound 100],315 nM
6,COc1ccc(C2CCN(Cc3nc4ncccc4n3C)CC2)cc1F [compound 92],2800 nM
7,C[C@@H]1CN(Cc2nc3cnccc3n2C)CC[C@@H]1c1ccc(C(F)(F)F)c(F)c1 (relative stereo) [compound 148],71.4 nM
8,C[C@@H]1CN(Cc2nc3cnccc3n2C)CC[C@@H]1c1cc(F)c(F)cc1F (relative stereo) [compound 180],762 nM
9,COc1cc(F)ccc1[C@H]1CCN(Cc2nc3ncccc3n2C)C[C@H]1C (relative stereo) [compound 132],78.5 nM
10,Cc1ccc(C)c(C2CCN(Cc3nc4ncccc4n3C)CC2)c1 [compound 61],290 nM
11,"C[C@@H]1CN(Cc2nc3cnccc3n2C)CC[C@@H]1c1ccc(Cl)cc1F (single isomer, unassigned) [compound 140]",2050 nM
12,CCOc1ccc(Cl)cc1C1CCN(Cc2nc3cccnc3n2C)CC1 [compound 42],501 nM
13,Cn1c(CN2CCC(c3ccccc3C(F)(F)F)CC2)nc2ncccc21 [compound 53],105 nM
14,Cn1c(CN2CCC(c3ccc(Cl)cc3F)CC2)nc2cccnc21 [compound 112],58.5 nM
15,Cn1c(CN2CCC(c3ccc(C(F)(F)F)cc3)CC2)nc2ncccc21 [compound 52],47.9 nM
16,C[C@@H]1CN(Cc2nc3cnccc3n2C)CC[C@@H]1c1ccc(OC(F)(F)F)cc1F (relative stereo) [compound 146],55.5 nM

# Same assay, conditions: mGluR2 potentiator screen, FLIPR, EC10-EC20 glutamate challenge
row,EC50,Compound
1,76.9 nM,"C[C@@H]1CN(Cc2nc3ncccc3n2C)CC[C@@H]1c1ccc(OC(F)(F)F)cc1Cl (single isomer, unassigned) [compound 255]"
2,86.6 nM,"C[C@@H]1CN(Cc2nc3cnccc3n2C)CC[C@@H]1c1ccc(OC(F)(F)F)cc1Cl (single isomer, unassigned) [compound 254]"
3,36 nM,"C[C@@H]1CN(Cc2nc3ncccc3n2C)CC[C@@H]1c1ccc(OC(F)F)cc1Cl (single isomer, unassigned) [compound 244]"
4,51.1 nM,Cc1cc(C(F)(F)F)ccc1C1CCN(Cc2nc3ncccc3n2C)CC1 [compound 243]
5,88.5 nM,Cc1cc(C2CCN(Cc3nc4cnccc4n3C)CC2)ccc1C(F)(F)F [compound 276]
6,96.8 nM,Cc1cc(OC(F)(F)F)ccc1C1CCN(Cc2nc3cnccc3n2C)CC1 [compound 240]
7,125 nM,"COc1cc(F)ccc1[C@H]1CCN(Cc2nc3cnccc3n2C)C[C@H]1C (single isomer, unassigned) [compound 260]"
8,288 nM,"C[C@@H]1CN(Cc2nc3ncccc3n2C)CC[C@@H]1c1ccc(F)cc1C(F)(F)F (single isomer, unassigned) [compound 252]"
